In paper PMC3907678 (Tumour Biology, 2013):

Target: PDE1 (calmodulin-dependent 3,5-cyclic-nucleotide phosphodiesterase)
Assay: CaM-dependent PDE1 cAMP hydrolysis assay, Lineweaver-Burk and Dixon plots
Assay type: biochemical

C[C@@H]1CC[C@H]2[C@@H](C)C(=O)O[C@@H]3O[C@@]4(C)CC[C@@H]1[C@]32OO4 [artemisinin]
Ki: 10 µM
